According to publication PMC10564737, “Structure-based design of a phosphotyrosine-masked covalent ligand targeting the E3 ligase SOCS2” (Nature Communications, 2023):
“And” between values parts separate entries of the source, which are not always exact repeats. Equal values may be shown once.

Biological target: T1, HiBiT-SOCS2 fusion in HeLa cells (Homo sapiens, UniProt O14508)
T1 construct: encoding SOCS2 (32–198) in pBiT3.1-N expression vector; expressed in transfected cells; host or cells: HeLa
T1 sequence (O14508 32-198): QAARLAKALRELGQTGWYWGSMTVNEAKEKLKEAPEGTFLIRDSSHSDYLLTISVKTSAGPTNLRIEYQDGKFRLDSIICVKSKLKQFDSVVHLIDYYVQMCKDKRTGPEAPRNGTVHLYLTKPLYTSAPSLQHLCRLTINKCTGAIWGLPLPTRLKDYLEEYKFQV
T1 sequence (Q15370 whole entry, further chain, the tested form may be a part): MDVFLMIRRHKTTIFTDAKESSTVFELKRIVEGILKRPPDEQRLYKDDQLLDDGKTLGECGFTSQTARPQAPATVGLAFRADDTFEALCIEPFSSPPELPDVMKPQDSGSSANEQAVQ
T1 sequence (Q15369 whole entry, further chain, the tested form may be a part): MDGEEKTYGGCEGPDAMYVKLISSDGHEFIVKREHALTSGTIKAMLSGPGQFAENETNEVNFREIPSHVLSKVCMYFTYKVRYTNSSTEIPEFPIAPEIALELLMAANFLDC
Assay: Split-NanoLuc CETSA, live-cell mode
Format: cell-based
Design: Produrg CETSA screening, raw signal: reference not given here
Settings: for Produrg CETSA screening, raw signal: 50uM 20hrs
Description: One of the challenges with small-molecule binders displaying on-target activity with recombinant proteins, is to translate their utility to a cellular context. […] One of the advantages of CETSA is that target engagement can be monitored without the need for the development of a cell-permeable tracer molecule.
We utilized CETSA in a live-cell mode to evaluate the efficacy and rank the different prodrugs. We treated live HeLa cells with 50 μM compound (prodrugs) for 20 h and monitored Tagg shift as a proxy for the combo of prodrug permeability and unmasking (Fig. 4d). […] The observation could be because the POM group unmasking requires only esterase unlike the reliance of compounds 21–23 on esterase and phosphoramidase for unmasking an aryloxy phosphoramidate group.
N-terminal HiBiT-SOCS2 fusion was generated by encoding SOCS2 (32–198) in pBiT3.1-N expression vector (Promega). The transfection and target engagement assay were performed by modifying a NanoLuc target engagement protocol (Promega) with some small modifications. Briefly, HiBiT-SOCS2 fusion construct was transfected into HeLa cells using FuGENE HD (Promega) according to the manufacturer’s protocol. HiBiT-SOCS2 fusion construct was diluted into Transfection Carrier DNA (Promega) at a mass ratio of 1:100 or 1:10 for permeabilised and live-cell CETSA respectively. FuGENE HD was added at a ratio of 1:3 (μg DNA: μL FuGENE HD). 1 part (vol) of FuGENE HD complexes thus formed were combined with 20 parts (vol) of HeLa cells suspended at a density of 2 × 10^5 cells/mL, followed by incubation in a humidified, 37 °C + 5% CO2 incubator. After 20 h of incubation HeLa cells were detached and resuspended at a density of 2.5 × 10^5 cells/mL in Opti-MEM media without serum or phenol red but supplemented with protease inhibitor cocktail (Roche). Compounds stocks were added to cell suspension to maintain a final DMSO concentration of 1%. For the permeabilised assay format, 96-well PCR plates (Thermo) were pre-treated with digitonin to have a final well concentration of 50 μg/ml. 50 μl Opti-MEM cell suspension was then aliquoted to each well of the 96-well plate. The plates are then covered with microporous tape sheet (Qiagen) prior to incubation in a humidified, 37 °C + 5% CO2 incubator. Post-incubation we heat the PCR plates in 16-point temperature (split across two runs) curve spanning degrees 40-72 °C temperature span (CFX96 Touch Real-Time PCR Detection System, BioRad). The thermal cycler block was allowed to rise to the designated temperatures prior to placement of the PCR plates into the heating block and heat treatment for 3 min. After incubating the plates at room temperature for over 3 min, 50 μl of the Nano-Glo HiBiT Lytic mix (Promega) was added to each well. Samples were mixed by pipetting and placing the plate on an orbital shaker (600 rpm) for 5 min. 20 μl of the samples (in triplicates) were transferred to a AlphaPlate-384 plate (Perkin Elmer). Luminescence was recorded with GloMax Discover Microplate Reader (Promega). To generate apparent Tagg curves, the data is first converted to percent stabilized by relating the observed luminescence to the luminescence of the lowest temperature (40 °C) for that given sample. Data are then fitted to obtain apparent Tagg values using the Boltzmann Sigmoid equation using Graphpad Prism 9.

Compound: CC(C)(C)C(=O)OCOP(=O)(OCOC(=O)C(C)(C)C)Oc1ccc(C[C@H](NC(=O)Cc2ccc(F)cc2)C(=O)NCc2cccc(NC(=O)CCl)c2)cc1 [MN714]
- Produrg CETSA screening, raw signal (n=1, temperature point 4 of 16, temperature not given): 54032 and 80376 and 105532
- Produrg CETSA screening, raw signal (n=1, temperature point 5 of 16, temperature not given): 90582 and 99338 and 174703
- Produrg CETSA screening, raw signal (n=1, temperature point 6 of 16, temperature not given): 139751 and 167289 and 205811
- Produrg CETSA screening, raw signal (n=1, temperature point 7 of 16, temperature not given): 195985 and 234426 and 281536
- Produrg CETSA screening, raw signal (n=1, temperature point 8 of 16, temperature not given): 244882 and 229067 and 241218
- Produrg CETSA screening, raw signal (n=1, temperature point 9 of 16, temperature not given): 256289 and 277913 and 306068
- Produrg CETSA screening, raw signal (n=1, temperature point 10 of 16, temperature not given): 320763 and 321677 and 363535
- Produrg CETSA screening, raw signal (n=1, temperature point 11 of 16, temperature not given): 372242 and 395029 and 425781
- Produrg CETSA screening, raw signal (n=1, temperature point 12 of 16, temperature not given): 423872 and 436050 and 431053
- Produrg CETSA screening, raw signal (n=1, temperature point 13 of 16, temperature not given): 366601 and 377426 and 420904
- Produrg CETSA screening, raw signal (n=1, temperature point 14 of 16, temperature not given): 362714 and 367767 and 404526
- Produrg CETSA screening, raw signal (n=1, temperature point 15 of 16, temperature not given): 419874 and 426204 and 438598
- Produrg CETSA screening, raw signal (n=1, temperature point 16 of 16, temperature not given): 418575 and 457050 and 469972
- Produrg CETSA screening, raw signal (n=2, temperature point 1 of 16, temperature not given): 80745 and 156547 and 107330
- Produrg CETSA screening, raw signal (n=2, temperature point 2 of 16, temperature not given): 108259 and 123901 and 132020
- Produrg CETSA screening, raw signal (n=2, temperature point 3 of 16, temperature not given): 72847 and 107017 and 131297
- Produrg CETSA screening, raw signal (n=2, temperature point 4 of 16, temperature not given): 98808 and 124869 and 145900
- Produrg CETSA screening, raw signal (n=2, temperature point 5 of 16, temperature not given): 73033 and 127162 and 126167
- Produrg CETSA screening, raw signal (n=2, temperature point 6 of 16, temperature not given): 163432 and 190209 and 191740
- Produrg CETSA screening, raw signal (n=2, temperature point 7 of 16, temperature not given): 242162 and 237309 and 241895
- Produrg CETSA screening, raw signal (n=2, temperature point 8 of 16, temperature not given): 244528 and 287537 and 296136
- Produrg CETSA screening, raw signal (n=2, temperature point 9 of 16, temperature not given): 280328 and 320314 and 333974
- Produrg CETSA screening, raw signal (n=2, temperature point 10 of 16, temperature not given): 308215 and 329369 and 371393
- Produrg CETSA screening, raw signal (n=2, temperature point 11 of 16, temperature not given): 342961 and 395565 and 371949
- Produrg CETSA screening, raw signal (n=2, temperature point 12 of 16, temperature not given): 424106 and 411160 and 460047
- Produrg CETSA screening, raw signal (n=2, temperature point 13 of 16, temperature not given): 397001 and 430594 and 470735
- Produrg CETSA screening, raw signal (n=2, temperature point 14 of 16, temperature not given): 424646 and 453700 and 455391
- Produrg CETSA screening, raw signal (n=2, temperature point 15 of 16, temperature not given): 402201 and 445060 and 429166
- Produrg CETSA screening, raw signal (n=2, temperature point 16 of 16, temperature not given): 423530 and 445088 and 469114
- Produrg CETSA screening, raw signal (n=3, Temp, 0C 62.3): 15991
- Produrg CETSA screening, raw signal (n=3, Temp, 0C 66.1): 13409 and 15862 and 18690
- Produrg CETSA screening, raw signal (n=3, Temp, 0C 69.3): 10941 and 16787 and 17374
- Produrg CETSA screening, raw signal (n=3, Temp, 0C 71.1): 8072 and 11559 and 15104
- Produrg CETSA screening, raw signal (n=3, Temp, 0C 72): 10040 and 12206 and 15596
- EC50 (2 hours EC50, MN714 dose response CETSA, Mean): 3.77 µM
- EC50 (2 hours EC50, individual replicates n1-n4, MN714 dose response CETSA, single replicates): 2.69 µM and 3.55 µM and 5.05 µM
- EC50 (8 hours EC50, MN714 dose response CETSA, Mean): 2.52 µM
- EC50 (8 hours EC50, individual replicates n1-n4, MN714 dose response CETSA, single replicates): 1.93 µM and 3.11 µM and 0.902 µM and 4.13 µM
- EC50 (EC50, live-cell CETSA, 2 h of treatment): 3.8 µM
- EC50 (EC50, live-cell CETSA, 8 h of treatment): 2.5 µM
- Tagg shift, live-cell CETSA (HeLa cells, 50 μM, 20 h): consistent superior SOCS2 engagement
- ΔT (Prodrug screen CETSA, live HeLa cells, 50 μM, 20 h, Mean n = 3): 4.89 oC
- ΔT, individual replicates n1-n3 (Prodrug screen CETSA, single replicates): 4.83 oC and 5.25 oC and 4.59 oC
